Measured values from patent US20250230165A1, “HETEROCYCLIC COMPOUNDS FOR USE IN THE TREATMENT OF CANCER” (ARTIOS PHARMA LIMITED, priority 2021, published 2025).

Biological target: T1, Human Polθ polymerase domain (aa1820-2590) (Homo sapiens, UniProt O75417)
T1 construct: Human Polθ polymerase domain (aa1820-2590) was expressed in E. coli; made in house; host or cells: E. coli
T1 sequence (O75417 1820-2590): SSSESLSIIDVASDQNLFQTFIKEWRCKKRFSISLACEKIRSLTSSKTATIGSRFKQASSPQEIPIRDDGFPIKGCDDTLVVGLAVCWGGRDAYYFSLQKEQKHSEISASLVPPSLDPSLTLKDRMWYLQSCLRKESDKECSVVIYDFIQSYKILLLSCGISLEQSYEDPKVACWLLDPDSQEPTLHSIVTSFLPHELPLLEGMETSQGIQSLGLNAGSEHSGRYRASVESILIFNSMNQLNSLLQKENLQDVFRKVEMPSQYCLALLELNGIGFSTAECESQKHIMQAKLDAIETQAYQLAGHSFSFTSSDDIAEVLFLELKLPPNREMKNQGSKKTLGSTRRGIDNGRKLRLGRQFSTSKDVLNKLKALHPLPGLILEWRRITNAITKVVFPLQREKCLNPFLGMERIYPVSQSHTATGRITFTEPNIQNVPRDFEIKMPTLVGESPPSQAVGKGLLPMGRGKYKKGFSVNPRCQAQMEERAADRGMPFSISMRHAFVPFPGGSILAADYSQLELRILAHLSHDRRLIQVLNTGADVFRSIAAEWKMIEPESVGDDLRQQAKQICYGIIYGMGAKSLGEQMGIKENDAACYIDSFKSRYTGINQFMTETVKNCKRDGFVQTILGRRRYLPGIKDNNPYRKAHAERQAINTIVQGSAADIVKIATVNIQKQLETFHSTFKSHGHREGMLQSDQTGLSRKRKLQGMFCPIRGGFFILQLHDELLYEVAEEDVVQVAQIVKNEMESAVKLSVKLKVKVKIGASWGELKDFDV
Assay: Polθ Polymerase Domain Kinact/KI Assay (PicoGreen)
Type: biochemical
Conditions: 0.8 nM Polθ, 100 nM DNA substrate, kobs vs [I] fit for 2-step covalent inhibitor
How it was run: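 Time-dependent inhibition was followed with 0.8 nM polymerase domain, 100 nM DNA substrate and […], reactions quenched over 60 min and quantified by PicoGreen. Kinact and KI came from a secondary plot of kobs against inhibitor concentration.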

| Structure (SMILES) | Kinact/Kl [M⁻¹ s⁻¹] |
| --- | --- |
| C=CC(=O)N1Cc2ccc(CN3C[C@H]4CC(=O)N(c5cc(C(F)(F)F)cc(C)n5)[C@@H]4C(=O)N(C)c4cccc(Cl)c43)cc2C1CC#N (single isomer, unassigned) [Example 288a] | 630000 |
| C=CC(=O)N1Cc2ccc(CN3C[C@H]4CC(=O)N(c5cc(C(F)(F)F)cc(C)n5)[C@@H]4C(=O)N(C)c4cccc(Cl)c43)nc2C1CC#N (single isomer, unassigned) [Example 289a] | 1.26e+06 |
| C=CC(=O)N1Cc2nc(CN3C[C@H]4CC(=O)N(c5cc(C(F)(F)F)cc(C)n5)[C@@H]4C(=O)N(C)c4cccc(Cl)c43)ccc2C1CC#N (single isomer, unassigned) [Example 290b] | 1.3e+06 |
| C=CC(=O)N1Cc2ncc(CN3C[C@H]4CC(=O)N(c5cc(C(F)(F)F)cc(C)n5)[C@@H]4C(=O)N(C)c4cccc(Cl)c43)cc2C1CC#N (single isomer, unassigned) [Example 291a] | 1.17e+06 |
| C=CC(=O)N1Cc2cc(CN3C[C@H]4CC(=O)N(c5cc(C(F)(F)F)cc(C)n5)[C@@H]4C(=O)N(C)c4cccc(Cl)c43)cnc2C1CC#N (single isomer, unassigned) [Example 292b] | 2.52e+06 |
| C=CC(=O)N1Cc2nc(CN3C[C@H]4CC(=O)N(c5cc(C(F)(F)F)cc(C)n5)[C@@H]4C(=O)N(C)c4cccc(Cl)c43)cn2CC1C(F)(F)F (single isomer, unassigned) [Example 293b] | 1.28e+06 |
| C=CC(=O)N1Cc2cc(CN3C[C@H]4CC(=O)N(c5cc(C(F)(F)F)cc(C)n5)[C@@H]4C(=O)N(C)c4cccc(Cl)c43)nn2CC1C (single isomer, unassigned) [Example 294a] | 1.61e+06 |
| Cc1cc(C(F)(F)F)cc(N2C(=O)C[C@@H]3CN(Cc4ccc5c(c4)CN(C(=O)/C=C/CN(C)C)C5CC#N)c4c(Cl)cccc4N(C)C(=O)[C@H]32)n1 (single isomer, unassigned) [Example 310b] | 1.46e+06 |
| Cc1cc(C(F)(F)F)cc(N2C(=O)C[C@@H]3CN(Cc4ccc5c(c4)C(CC#N)N(C(=O)/C=C/CN(C)C)C5)c4c(Cl)cccc4N(C)C(=O)[C@H]32)n1 (single isomer, unassigned) [Example 311a] | 1.12e+06 |
| C=CC(=O)N1C[C@H](F)[C@@H](n2cc(CN3C[C@H]4CC(=O)N(c5cc(C(F)(F)F)cc(C)n5)[C@@H]4C(=O)N(C)c4cccc(C)c43)cn2)C1 (single isomer, unassigned) [Example 325a] | 1.25e+06 |
| C=CC(=O)N1C[C@@H](F)[C@H](n2cc(CN3C[C@H]4CC(=O)N(c5cc(C(F)(F)F)cc(C)n5)[C@@H]4C(=O)N(C)c4cccc(C)c43)cn2)C1 (single isomer, unassigned) [Example 325b] | 870000 |
| C=CC(=O)N1C[C@@H](n2cc(CN3C[C@H]4CC(=O)N(c5cc(C(F)(F)F)cc(C)n5)[C@@H]4C(=O)N(C)c4cccc(C)c43)cn2)[C@@H](F)C1 (single isomer, unassigned) [Example 325c] | 980000 |
| C=CC(=O)N1C[C@@H](F)[C@@H](n2cc(CN3C[C@H]4CC(=O)N(c5cc(C(F)(F)F)cc(C)n5)[C@@H]4C(=O)N(C)c4cccc(C)c43)cn2)C1 (single isomer, unassigned) [Example 325d] | 1.77e+06 |
| C=CC(=O)N1C[C@@H](F)[C@@H](n2cnc(CN3C[C@H]4CC(=O)N(c5cc(C(F)(F)F)cc(C)n5)[C@@H]4C(=O)N(C)c4cccc(C)c43)c2)C1 (single isomer, unassigned) [Example 326a] | 450000 |
| C=CC(=O)N1C[C@@H](n2cnc(CN3C[C@H]4CC(=O)N(c5cc(C(F)(F)F)cc(C)n5)[C@@H]4C(=O)N(C)c4cccc(C)c43)c2)[C@@H](F)C1 (single isomer, unassigned) [Example 326b] | 1.52e+06 |
| C=CC(=O)N1CC(N2CCN(CCN3C[C@H]4CC(=O)N(c5cc(C(F)(F)F)cc(C)n5)[C@@H]4C(=O)N(C)c4cccc(F)c43)CC2)C1 [Example 1, (3aR,11aS)-5-(2-(4-(1-Acryloylazetidin-3-yl)piperazin-1-yl)ethyl)-6-fluoro-10-methyl-1-(6-methyl-4-(trifluoromethyl)pyridin-2-yl)-1,3a,4,5,10,11a-hexahydro-2H-benzo[b]pyrrolo[2,3-f][1,4]diazocine-2,11(3H)-dione] | 410000 |
| C=CC(=O)N1CC2(CN(CCN3C[C@H]4CC(=O)N(c5cc(C(F)(F)F)cc(C)n5)[C@@H]4C(=O)N(C)c4cccc(F)c43)C[C@H]3CCCN32)C1 [Example 2, (3aR,11aS)-5-(2-((R)-1-Acryloyltetrahydro-1′H-spiro[azetidine-3,4′-pyrrolo[1,2-a]pyrazin]-2′(3′H)-yl)ethyl)-6-fluoro-10-methyl-1-(6-methyl-4-(trifluoromethyl)pyridin-2-yl)-1,3a,4,5,10,11a-hexahydro-2H-benzo[b]pyrrolo[2,3-f][1,4]diazocine-2,11(3H)-dione] | 670000 |
| C=CC(=O)N1CC(N2CCCN(CCN3C[C@H]4CC(=O)N(c5cc(C(F)(F)F)cc(C)n5)[C@@H]4C(=O)N(C)c4cccc(F)c43)CC2)C1 [Example 3, (3aR,11aS)-5-(2-(4-(1-Acryloylazetidin-3-yl)-1,4-diazepan-1-yl)ethyl)-6-fluoro-10-methyl-1-(6-methyl-4-(trifluoromethyl)pyridin-2-yl)-1,3a,4,5,10,11a-hexahydro-2H-benzo[b]pyrrolo[2,3-f][1,4]diazocine-2,11(3H)-dione] | 540000 |
| C=CC(=O)N1CC2(CN(CCN3C[C@H]4CC(=O)N(c5cc(C(F)(F)F)cc(C)n5)[C@@H]4C(=O)N(C)c4cccc(F)c43)CCO2)C1 [Example 4, (3aR,11aS)-5-(2-(2-acryloyl-5-oxa-2,8-diazaspiro[3.5]nonan-8-yl)ethyl)-6-fluoro-10-methyl-1-(6-methyl-4-(trifluoromethyl)pyridin-2-yl)-1,3a,4,5,10,11a-hexahydro-2H-benzo[b]pyrrolo[2,3-f][1,4]diazocine-2,11(3H)-dione] | 750000 |
| C=CC(=O)N1CC2CN(CCN3C[C@H]4CC(=O)N(c5cc(C(F)(F)F)cc(C)n5)[C@@H]4C(=O)N(C)c4cccc(F)c43)CC(C1)O2 [Example 5, (3aR,11aS)-5-(2-(7-acryloyl-9-oxa-3,7-diazabicyclo[3.3.1]nonan-3-yl)ethyl)-6-fluoro-10-methyl-1-(6-methyl-4-(trifluoromethyl)pyridin-2-yl)-1,3a,4,5,10,11a-hexahydro-2H-benzo[b]pyrrolo[2,3-f][1,4]diazocine-2,11(3H)-dione] | 140000 |
| C=CC(=O)N1CC2(CN(CCN3C[C@H]4CC(=O)N(c5cc(C(F)(F)F)cc(C)n5)[C@@H]4C(=O)N(C)c4cccc(F)c43)C[C@@H](COC)N2)C1 [Example 6, (3aR,11aS)-5-(2-((S)-2-acryloyl-6-(methoxymethyl)-2,5,8-triazaspiro[3.5]nonan-8-yl)ethyl)-6-fluoro-10-methyl-1-(6-methyl-4-(trifluoromethyl)pyridin-2-yl)-1,3a,4,5,10,11a-hexahydro-2H-benzo[b]pyrrolo[2,3-f][1,4]diazocine-2,11(3H)-dione] | 540000 |
| C=CC(=O)N1CC(N2CCN(CCN3C[C@H]4CC(=O)N(c5cc(C(F)(F)F)cc(C)n5)[C@@H]4C(=O)N(C)c4cccc(Cl)c43)CC2)C1 [Example 12, (3aR,11aS)-5-(2-(4-(1-acryloylazetidin-3-yl)piperazin-1-yl)ethyl)-6-chloro-10-methyl-1-(6-methyl-4-(trifluoromethyl)pyridin-2-yl)-1,3a,4,5,10,11a-hexahydro-2H-benzo[b]pyrrolo[2,3-f][1,4]diazocine-2,11(3H)-dione] | 1.71e+06 |
| C=CC(=O)N1CC2(CN(CCN3C[C@H]4CC(=O)N(c5cc(C(F)(F)F)cc(C)n5)[C@@H]4C(=O)N(C)c4cccc(Cl)c43)C[C@@H](C)N2)C1 [Example 13, (3aR,11aS)-5-(2-((R)-2-acryloyl-6-methyl-2,5,8-triazaspiro[3.5]nonan-8-yl)ethyl)-6-chloro-10-methyl-1-(6-methyl-4-(trifluoromethyl)pyridin-2-yl)-1,3a,4,5,10,11a-hexahydro-2H-benzo[b]pyrrolo[2,3-f][1,4]diazocine-2,11(3H)-dione] | 1.26e+06 |
| C=CC(=O)N1CCN2CCN(CCN3C[C@H]4CC(=O)N(c5cc(C(F)(F)F)cc(C)n5)[C@@H]4C(=O)N(C)c4cccc(Cl)c43)CC2C1 (stereo partly drawn) [Example 14, (3aR,11aS)-5-(2-(8-acryloyloctahydro-2H-pyrazino[1,2-a]pyrazin-2-yl)ethyl)-6-chloro-10-methyl-1-(6-methyl-4-(trifluoromethyl)pyridin-2-yl)-1,3a,4,5,10,11a-hexahydro-2H-benzo[b]pyrrolo[2,3-f][1,4]diazocine-2,11(3H)-dione] | 2.05e+06 |
